Literature values as cited in PMC5762859, “Distribution analysis of epertinib in brain metastasis of HER2-positive breast cancer by imaging mass spectrometry and prospect for antitumor activity” (Scientific Reports, 2018).

Tests used:
[1] = healthy volunteers, single oral 250 mg [14C]-lapatinib; cited from earlier work
[2] = molecular target: T1, breast cancer resistance protein (BCRP) (Homo sapiens, UniProt Q9UNQ0); conditions: cited from earlier work
T1 construct: permeability and efflux ratio of epertinib across Caco-2 cell monolayers; endogenous in cells; host or cells: Caco-2
T1 sequence (Q9UNQ0 1-655): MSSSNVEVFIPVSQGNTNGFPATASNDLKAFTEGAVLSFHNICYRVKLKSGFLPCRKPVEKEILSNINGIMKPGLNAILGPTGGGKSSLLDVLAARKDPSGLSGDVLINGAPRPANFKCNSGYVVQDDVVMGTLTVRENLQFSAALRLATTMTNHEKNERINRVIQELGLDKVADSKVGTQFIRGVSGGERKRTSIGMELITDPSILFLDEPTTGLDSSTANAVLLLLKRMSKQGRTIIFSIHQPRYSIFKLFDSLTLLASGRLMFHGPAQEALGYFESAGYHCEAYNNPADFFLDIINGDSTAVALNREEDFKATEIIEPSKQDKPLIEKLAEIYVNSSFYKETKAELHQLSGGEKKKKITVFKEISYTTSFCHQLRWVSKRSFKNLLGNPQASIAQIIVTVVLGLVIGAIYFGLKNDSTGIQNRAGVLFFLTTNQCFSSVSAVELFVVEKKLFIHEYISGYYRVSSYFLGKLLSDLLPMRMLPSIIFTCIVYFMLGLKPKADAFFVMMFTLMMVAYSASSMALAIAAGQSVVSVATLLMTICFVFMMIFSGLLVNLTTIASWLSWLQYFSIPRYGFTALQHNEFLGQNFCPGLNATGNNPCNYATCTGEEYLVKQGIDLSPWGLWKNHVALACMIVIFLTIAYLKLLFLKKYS

[3] = molecular target: T2, P-glycoprotein (P-gp) (Homo sapiens, UniProt P08183); conditions: cited from earlier work
T2 construct: permeability and efflux ratio of epertinib across Caco-2 cell monolayers; endogenous in cells; host or cells: Caco-2

[4] = system: HER2-positive metastatic breast cancer patients; conditions: historical data, combination with trastzumab; cited from earlier work

T2 sequence (P08183 whole entry): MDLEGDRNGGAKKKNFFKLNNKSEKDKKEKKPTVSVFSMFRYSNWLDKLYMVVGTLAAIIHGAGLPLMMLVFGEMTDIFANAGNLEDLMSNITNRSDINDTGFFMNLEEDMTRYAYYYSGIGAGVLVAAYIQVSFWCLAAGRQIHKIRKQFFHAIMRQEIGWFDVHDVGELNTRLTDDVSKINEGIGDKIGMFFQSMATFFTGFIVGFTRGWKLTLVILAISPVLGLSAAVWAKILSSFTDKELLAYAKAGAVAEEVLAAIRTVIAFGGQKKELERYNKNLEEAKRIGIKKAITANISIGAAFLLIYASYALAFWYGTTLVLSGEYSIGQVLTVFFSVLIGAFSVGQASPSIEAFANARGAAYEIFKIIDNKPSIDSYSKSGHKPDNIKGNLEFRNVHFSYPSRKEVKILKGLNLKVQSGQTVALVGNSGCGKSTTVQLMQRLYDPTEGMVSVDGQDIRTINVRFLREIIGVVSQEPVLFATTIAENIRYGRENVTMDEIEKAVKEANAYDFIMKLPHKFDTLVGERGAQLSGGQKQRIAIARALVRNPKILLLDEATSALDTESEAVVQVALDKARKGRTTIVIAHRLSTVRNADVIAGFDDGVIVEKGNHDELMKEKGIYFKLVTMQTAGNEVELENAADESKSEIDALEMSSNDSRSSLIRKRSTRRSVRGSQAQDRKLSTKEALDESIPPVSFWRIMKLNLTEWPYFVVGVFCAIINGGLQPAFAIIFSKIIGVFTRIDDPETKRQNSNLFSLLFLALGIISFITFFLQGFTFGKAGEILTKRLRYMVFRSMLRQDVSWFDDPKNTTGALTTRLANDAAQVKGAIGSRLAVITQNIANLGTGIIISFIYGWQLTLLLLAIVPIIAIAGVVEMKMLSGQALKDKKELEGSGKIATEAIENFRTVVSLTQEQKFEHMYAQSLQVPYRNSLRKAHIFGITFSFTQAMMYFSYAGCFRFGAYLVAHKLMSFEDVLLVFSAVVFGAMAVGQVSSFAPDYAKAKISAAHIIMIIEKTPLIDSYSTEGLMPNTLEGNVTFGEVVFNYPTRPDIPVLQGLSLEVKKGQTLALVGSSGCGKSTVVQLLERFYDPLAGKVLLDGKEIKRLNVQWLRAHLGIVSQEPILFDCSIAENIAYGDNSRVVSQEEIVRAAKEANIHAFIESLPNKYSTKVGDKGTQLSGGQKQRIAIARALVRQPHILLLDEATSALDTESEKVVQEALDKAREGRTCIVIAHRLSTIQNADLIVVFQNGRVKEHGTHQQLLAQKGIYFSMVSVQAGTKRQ

| Structure (SMILES) | Mean plasma concentration of total radioactivity at Cmax [1] [ng eq./mL] | BCRP substrate [2] | P-gp substrate [3] | Objective response rate (ORR) [4] [%] |
| --- | --- | --- | --- | --- |
| CS(=O)(=O)CCNCc1ccc(-c2ccc3ncn[14c](Nc4ccc(OCc5cccc(F)c5)c(Cl)c4)c3c2)o1.Cc1ccc(S(=O)(=O)O)cc1.O [[^14C]-lapatinib] | 720 | – | – | – |
| CN(C)C/C=C/C(=O)Nc1cc2c(Nc3ccc(F)c(Cl)c3)ncnc2cc1O[C@H]1CCOC1 [afatinib] | – | substrates | substrates | – |
| CCOc1cc2ncc(C#N)c(Nc3ccc(OCc4ccccn4)c(Cl)c3)c2cc1NC(=O)/C=C/CN(C)C [neratinib] | – | substrates | substrates | – |
| Cc1cc(Nc2ncnc3ccc(NC4=NC(C)(C)CO4)cc23)ccc1Oc1ccn2ncnc2c1 [tucatinib] | – | substrates | substrates | 26 |
